In patent publication US20090191216A1, “Antibody or a fragment thereof, having neutralizing activity against HIV” (priority 2005, published 2009):
Bridges are numbered along the chain shown (N, C = ends). Where no end group is shown, it is not given here.

System: HIV-1 R5 strains from clades C and D
Assay: Inhibition of HIV-1 transcytosis across HEC-1 cell line with cyclized CDR3
Assay type: cell-based
Details: cells preincubated 30 minutes at 17° C. with peptide; linear CDR3 as control

Substance: cyclized CDR3 derived from Fab clone 43: CDR3 of clone 43 H chain (SEQ ID NO:1) with flanking residues, cyclized by disulfide bridge, SEQ ID NO:12 (CARDPRYYDAWSGPQLYYYYMDVWCKG; disulfide 1-25; listed as Homo Sapiens)
- inhibition of transcytosis: more than 50%
